# Activity calls are given as the source filed them.
# Experiments:
# Protein skinhead-1 = target: T1, Protein skinhead-1 (Caenorhabditis elegans, UniProt P34707); type: functional
# T1 sequence (P34707 whole entry): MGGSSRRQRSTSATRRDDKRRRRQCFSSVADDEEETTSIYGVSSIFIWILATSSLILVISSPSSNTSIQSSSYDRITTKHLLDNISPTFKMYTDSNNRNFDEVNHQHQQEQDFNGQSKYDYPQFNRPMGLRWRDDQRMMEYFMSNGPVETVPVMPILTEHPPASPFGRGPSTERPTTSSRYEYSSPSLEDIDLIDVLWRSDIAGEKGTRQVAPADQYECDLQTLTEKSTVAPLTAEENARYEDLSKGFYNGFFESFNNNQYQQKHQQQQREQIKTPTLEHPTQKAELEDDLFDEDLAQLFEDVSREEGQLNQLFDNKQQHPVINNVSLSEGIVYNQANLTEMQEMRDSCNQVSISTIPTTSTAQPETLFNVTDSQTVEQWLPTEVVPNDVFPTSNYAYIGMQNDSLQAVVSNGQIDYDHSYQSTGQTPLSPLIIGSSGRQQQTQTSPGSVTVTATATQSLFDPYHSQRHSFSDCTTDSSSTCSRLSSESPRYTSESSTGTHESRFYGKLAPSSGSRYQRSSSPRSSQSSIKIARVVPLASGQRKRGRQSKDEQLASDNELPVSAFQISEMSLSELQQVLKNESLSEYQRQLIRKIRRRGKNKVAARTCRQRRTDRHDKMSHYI
# [1] = Luminescence Cell-Based Dose Retest to Confirm Inhibitors of Cancer Stem Cells. [Related pubchem assays (depositor defined):AID2717, AID2721]; type: functional; conditions: Homo sapiens
# cells = type: functional
# INS1 = experiment: beta cell apoptosis inhibitors, cytokine rescue, dose response, luminescence, retest (AID 449756); type: functional, cell-based; conditions: Rattus norvegicus;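 also: cell death triggered by IL-1 beta plus TNF-alpha plus IFN-gamma mixture; protective hits raise ATP signal compared with cytokine alone wells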
# [2] = test system: Streptococcus sp. 'group A'; experiment: growth inhibition of control SK(-) GAS strain, dose response, counter-screen for streptokinase expression inhibitor project, luminescence, kanamycin, BacTiterGlo, confirmation (AID 1900); type: functional, organism-based
# Streptokinase A = target: T2, Streptokinase A (Streptococcus pyogenes serotype M1, UniProt P10520); experiment: S. pyogenes streptokinase expression inhibitors, potency, dose response, plasminogen activation absorbance, OD405 (AID 1914); type: functional, Streptococcus pyogenes M1 GAS;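 also: secreted streptokinase activity via plasminogen activation per viability signal from cell pellet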
# T2 sequence (P10520 whole entry): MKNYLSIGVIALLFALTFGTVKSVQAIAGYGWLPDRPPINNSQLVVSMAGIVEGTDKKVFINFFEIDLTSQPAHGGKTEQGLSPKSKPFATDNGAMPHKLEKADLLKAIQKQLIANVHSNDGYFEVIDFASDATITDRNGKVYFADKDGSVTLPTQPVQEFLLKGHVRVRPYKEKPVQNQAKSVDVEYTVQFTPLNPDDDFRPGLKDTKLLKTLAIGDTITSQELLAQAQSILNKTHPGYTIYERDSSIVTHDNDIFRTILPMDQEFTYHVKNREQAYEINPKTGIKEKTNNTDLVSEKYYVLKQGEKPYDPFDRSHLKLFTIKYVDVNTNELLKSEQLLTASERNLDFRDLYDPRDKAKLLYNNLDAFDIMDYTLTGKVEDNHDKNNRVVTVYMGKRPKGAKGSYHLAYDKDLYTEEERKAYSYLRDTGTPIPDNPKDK
# Streptococcus = experiment: Group A Streptococcus viability loss, dose response, counter-screen for streptokinase expression inhibitor project, luminescence, BacTiterGlo (AID 1915); type: functional, organism-based;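 also: potency for reduction of bacterial viability or growth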
# Cytochrome P450 2D6 = Cytochrome P450 2D6 (Homo sapiens, UniProt P10635);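 also: CYP2D6 member of a cytochrome P450 panel assay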
# Sequence of Cytochrome P450 2D6 (P10635 whole entry): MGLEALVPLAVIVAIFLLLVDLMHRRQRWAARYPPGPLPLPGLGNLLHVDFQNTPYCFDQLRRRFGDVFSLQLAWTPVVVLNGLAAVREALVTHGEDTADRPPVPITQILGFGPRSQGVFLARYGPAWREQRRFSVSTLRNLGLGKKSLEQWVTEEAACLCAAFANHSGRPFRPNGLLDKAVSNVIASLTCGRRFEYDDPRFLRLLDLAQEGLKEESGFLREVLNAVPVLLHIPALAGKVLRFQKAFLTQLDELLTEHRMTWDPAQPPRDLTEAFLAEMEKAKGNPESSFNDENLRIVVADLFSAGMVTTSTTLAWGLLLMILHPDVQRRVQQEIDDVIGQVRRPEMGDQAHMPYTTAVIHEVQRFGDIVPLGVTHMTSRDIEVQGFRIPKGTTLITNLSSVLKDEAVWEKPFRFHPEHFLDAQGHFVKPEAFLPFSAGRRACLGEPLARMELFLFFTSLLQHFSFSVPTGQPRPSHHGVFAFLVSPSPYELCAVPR
Structure (SMILES),IC50 (Protein skinhead-1),AC50 [1],other results
CN(CC(=O)Nc1cccc(F)c1)C(=O)CC1CC2CCC1C2 (centres undefined),> 100 µM (inactive),–,–
Cc1ccc(-c2nnn(CC(=O)NCC3COCCO3)n2)o1 (centres undefined),> 100 µM (inactive),–,–
Cc1ccn2c(NC3CCCCC3)c(-c3cccc(SC4CCCCC4)c3)nc2c1,–,2.65 µM (active),–
COC(=O)COc1ccc(-c2ccccc2)cc1C=O,–,–,IC50 (cells): 12.1 µM (active)
CC(=O)c1c(C)[nH]c(C(=O)CN2CCN(S(=O)(=O)c3ccccc3)CC2)c1C,–,–,AC50 (INS1): > 260 µM (inactive)
C=CC[C@@H](CC(=O)N(CCO)Cc1ccccc1)C(=O)N[C@H](COC(=O)[C@@H](CC=C)CC(=O)OC(C)(C)C)c1ccccc1,–,–,AC50 (INS1): > 260 µM (inactive)
O=C(OCn1nnc2ccccc2c1=O)c1ccc(Br)o1,–,–,IC50 (cells): 18.6 µM (active)
C[C@@H]1O[C@@H](O[C@H]2C[C@@H](O)[C@]3(CO)[C@H]4[C@H](O)C[C@]5(C)[C@@H](C6=CC(=O)OC6)CC[C@]5(O)[C@@H]4CC[C@]3(O)C2)[C@H](O)[C@H](O)[C@H]1O,–,< 0.16 µM (active),–
COc1ccc(C(=O)c2ccc(OC)cc2OC)cc1,–,13.6 µM (active),–
COC(=O)c1cc(NC(=O)c2cc(-c3ccccc3Cl)oc2C(F)(F)F)ccc1N1CCOCC1,–,4.57 µM (active),–
CCn1c(C)c(C)c2cc(C(=O)N3CCN(c4ccccc4)CC3)ccc21,> 100 µM (inactive),–,–
COc1ccc(-c2cccc([C@H]3[C@@H]4C=CCC[C@@]4(C)C(=O)N3Cc3ccccc3)c2)cc1,–,5.36 µM (active),–
c1nc2n(n1)C1=C(CCCC1)C1(CCCCC1)N2,–,–,IC50 (cells): 10.1 µM (active)
Cc1ccc(OCCSc2nc(NC(C)C)nc(NC(C)C)n2)cc1,–,1.11 µM (active),EC50 [2]: 6.42 µM (active); EC50 (Streptokinase A): 13.9 µM (active); EC50 (Streptococcus): 34.2 µM (active)
CCCOc1ccc(OCCSc2ncccn2)cc1,82.8 µM (inactive),–,–
CC(C)c1ccc(NC(=O)C(c2ccccc2)N(C)C(=O)CCc2c[nH]c3ccccc23)cc1 (centres undefined),–,4 µM (active),–
CC(=O)Nc1ccc(SCC(=O)c2cc(C)n(-c3ccccc3)c2C)cc1,–,6.41 µM (active),–
COc1ccc(NC(=O)c2cc3ccccc3o2)cc1,–,–,IC50 (cells): > 50 µM (active)
COC(=O)c1c2c(nc3ccccc13)CCC2,> 100 µM (inactive),–,–
O=C(C=Cc1ccco1)c1ccc2ccccc2c1,9.38 µM (active),–,–
O=C(NC(=S)N(Cc1ccccc1)Cc1ccccc1)c1ccccc1F,–,–,EC50 [2]: 1.08 µM (active); EC50 (Streptokinase A): > 150 µM (not active); EC50 (Streptococcus): 9.16 µM (active); AC50 (Cytochrome P450 2D6): 0.2 µM (inconclusive)
O=[N+]([O-])c1ccc(Nc2nccc(Cl)n2)cc1,> 100 µM (inactive),–,–
O=C(NCc1ccccc1)C1=C[C@@H](c2csc3ccccc23)C[C@@H](OCc2ccc(CO)cc2)O1,–,–,AC50 (INS1): 2.88 µM (active)

# — ChEMBL document CHEMBL1201862, “PubChem BioAssay data set” (2004)
